From the supplement of paper PMC13380429

Experiments:
[1] = tested on: A549-ACE2 infected with SARS-CoV-2; assay: cell count relative to DMSO; higher = less toxic; conditions: 24 h
Caco-2 [2] = assay: cell viability relative to DMSO; higher = less toxic; conditions: 72 h
Calu-3 [3] = assay: as above; conditions: 72 h
HepG2 [4] = assay: as above; conditions: 72 h
U2OS [5] = assay: as above; conditions: 72 h
Vero E6 [6] = assay: as above; conditions: 72 h
[7] = tested on: A549-ACE2 infected with SARS-CoV-2; assay: SARS-CoV-2 infection rate relative to DMSO; higher = more infection; conditions: 24 h
A549-ACE2 [8] = assay: drug-induced phospholipidosis relative to tamoxifen; higher = more phospholipidosis
[9] = tested on: A549-ACE2 infected with SARS-CoV-2; assay: morphology score (similarity to uninfected cells); higher = more like uninfected cells; conditions: 24 h
Caco-2 [10] = assay: relative viability EC50 (midpoint between 100% and the lowest measured viability); higher = less toxic; conditions: 72 h
Calu-3 [11] = assay: as above; conditions: 72 h
U2OS [12] = assay: as above; conditions: 72 h
Vero E6 [13] = assay: as above; conditions: 72 h
Caco-2 [14] = assay: drug sensitivity score (DSS) for viability; higher = more toxic; extreme values may be limits of the assay; conditions: 72 h
Calu-3 [15] = assay: as above; conditions: 72 h
HepG2 [16] = assay: as above; conditions: 72 h
U2OS [17] = assay: as above; conditions: 72 h
Vero E6 [18] = assay: as above; conditions: 72 h
A549-ACE2 [19] = assay: phospholipidosis EC50; higher = less potent phospholipidosis inducer
HepG2 [20] = assay: relative viability EC50 (midpoint between 100% and the lowest measured viability); higher = less toxic; conditions: 72 h

Clc1cc(Cl)c(OCC#CI)cc1Cl [haloprogin]
Conditions | SARS-CoV-2 infection rate, [7] [%] | cell count, [1] [%] | cell viability, Caco-2 [2] [%] | cell viability, Calu-3 [3] [%] | cell viability, HepG2 [4] [%] | cell viability, U2OS [5] [%] | cell viability, Vero E6 [6] [%] | morphology score, [9]
1 nM | – | – | 109 | 84 | 91.8 | 95.6 | 95.3 | –
10 nM | – | – | 90.2 | 88.5 | 104 | 95.2 | 96.9 | –
100 nM | – | – | 95.1 | 99.9 | 116 | 97.5 | 90.6 | –
0.3 µM | 97 | 100 | – | – | – | – | – | 0.18
1000 nM | – | – | 130 | 95.9 | 91 | 95.2 | 101 | –
3 µM | 83 | 100 | – | – | – | – | – | 0.44
10 µM | 71 | 79 | – | – | – | – | – | 0.28
10000 nM | – | – | 97 | 110 | 59.5 | 47.1 | 93.9 | –
30 µM | 15 | 15 | – | – | – | – | – | 0.1

drug-induced phospholipidosis [%], A549-ACE2 [8]
Conditions | 0.3 µM | 0.833333 µM | 3.33333 µM | 6.66667 µM | 10 µM
24 h | 4.53 | 2.7 | 5.33 | 17.8 | 23.3
48 h | -1.51 | -0.64 | 1.31 | 14.4 | 7.74
72 h | 5.04 | -1.02 | -0.916 | 2.19 | -6.87

Conditions | drug sensitivity score | relative viability EC50 [µM]
Caco-2 [10] | – | > 10
Caco-2 [14] | 0 | –
Calu-3 [11] | – | > 10
Calu-3 [15] | 0 | –
HepG2 [16] | 3.4 | –
U2OS [12] | – | 2.42
U2OS [17] | 3.6 | –
Vero E6 [13] | – | > 10
Vero E6 [18] | 0 | –

Cc1ccc(NC(=O)c2ccc(CN3CCN(C)CC3)cc2)cc1Nc1nccc(-c2cccnc2)n1 [imatinib]
Conditions | morphology score, 0.3 µM | morphology score, 3 µM | morphology score, 10 µM | morphology score, 30 µM | phospholipidosis EC50, 24 h [µM] | phospholipidosis EC50, 48 h [µM] | phospholipidosis EC50, 72 h [µM]
A549-ACE2 [19] | – | – | – | – | 6.11 | 13 | 10
[9] | 0.28 | 0.55 | 0.73 | -0.03 | – | – | –

Conditions | drug sensitivity score
Calu-3 [15] | 0.1
HepG2 [16] | 2.4
U2OS [17] | 0
Vero E6 [18] | 0

Cc1ccc(NC(=O)c2ccc(CN3CCN(C)CC3)cc2)cc1Nc1nc(-c2cccnc2)cs1 [masitinib]
Conditions | SARS-CoV-2 infection rate, [7] [%] | cell count, [1] [%] | cell viability, Caco-2 [2] [%] | cell viability, Calu-3 [3] [%] | cell viability, HepG2 [4] [%] | cell viability, U2OS [5] [%] | cell viability, Vero E6 [6] [%] | morphology score, [9]
1 nM | – | – | 104 | 107 | 105 | 106 | 105 | –
10 nM | – | – | 99.5 | 88 | 103 | 101 | 102 | –
100 nM | – | – | 99.1 | 97.4 | 99.6 | 104 | 101 | –
0.3 µM | 98 | 88 | – | – | – | – | – | 0.14
1000 nM | – | – | 97.3 | 97.9 | 101 | 98 | 98 | –
10000 nM | – | – | 72 | 75.1 | 43.9 | 93.2 | 88.9 | –

A549-ACE2 [8], 0.3 µM
Conditions | drug-induced phospholipidosis [%]
24 h | -0.73
48 h | 0.9
72 h | 2.47

Conditions | drug sensitivity score | relative viability EC50 [µM]
Caco-2 [14] | 1.6 | –
Calu-3 [11] | – | > 10
Calu-3 [15] | 1.2 | –
HepG2 [16] | 2.9 | –
HepG2 [20] | – | 3.29
U2OS [12] | – | > 10
U2OS [17] | 0 | –
Vero E6 [13] | – | > 10
Vero E6 [18] | 0.1 | –

O=C(c1ccc(OCCN2CCCCC2)cc1)c1c(-c2ccc(O)cc2)sc2cc(O)ccc12 [raloxifene]
Conditions | SARS-CoV-2 infection rate [%] | cell count [%] | cell viability [%] | morphology score | phospholipidosis EC50 [µM]
A549-ACE2 [19], 72 h | – | – | – | – | 29.8
Caco-2 [2], 1 nM | – | – | 108 | – | –
Caco-2 [2], 10 nM | – | – | 82.9 | – | –
Caco-2 [2], 100 nM | – | – | 100 | – | –
Caco-2 [2], 1000 nM | – | – | 78.3 | – | –
Caco-2 [2], 10000 nM | – | – | 60.9 | – | –
Calu-3 [3], 1 nM | – | – | 102 | – | –
Calu-3 [3], 10 nM | – | – | 92.4 | – | –
Calu-3 [3], 100 nM | – | – | 98.1 | – | –
Calu-3 [3], 1000 nM | – | – | 103 | – | –
Calu-3 [3], 10000 nM | – | – | 79.5 | – | –
HepG2 [4], 1 nM | – | – | 91.4 | – | –
HepG2 [4], 10 nM | – | – | 95.2 | – | –
HepG2 [4], 100 nM | – | – | 93.6 | – | –
HepG2 [4], 1000 nM | – | – | 101 | – | –
HepG2 [4], 10000 nM | – | – | 74.1 | – | –
U2OS [5], 1 nM | – | – | 93 | – | –
U2OS [5], 10 nM | – | – | 91.3 | – | –
U2OS [5], 100 nM | – | – | 97.7 | – | –
U2OS [5], 1000 nM | – | – | 95.4 | – | –
U2OS [5], 10000 nM | – | – | 89.9 | – | –
Vero E6 [6], 1 nM | – | – | 107 | – | –
Vero E6 [6], 10 nM | – | – | 98.8 | – | –
Vero E6 [6], 100 nM | – | – | 99.3 | – | –
Vero E6 [6], 1000 nM | – | – | 94.8 | – | –
Vero E6 [6], 10000 nM | – | – | 67.9 | – | –
[1], 0.1 µM | – | 94 | – | – | –
[1], 0.3 µM | – | 102 | – | – | –
[1], 1 µM | – | 97 | – | – | –
[1], 3 µM | – | 106 | – | – | –
[7], 0.1 µM | 99 | – | – | – | –
[7], 0.3 µM | 97 | – | – | – | –
[7], 1 µM | 104 | – | – | – | –
[7], 3 µM | 84 | – | – | – | –
[9], 0.1 µM | – | – | – | -0.07 | –
[9], 0.3 µM | – | – | – | 0.17 | –
[9], 1 µM | – | – | – | -0.1 | –
[9], 3 µM | – | – | – | 0.42 | –

drug-induced phospholipidosis [%], A549-ACE2 [8]
Conditions | 0.3 µM | 0.833333 µM | 3.33333 µM | 6.66667 µM | 10 µM | 30 µM
24 h | -1.05 | -0.52 | 10.1 | 22.3 | 37.7 | -2.02
48 h | 3.44 | 1.43 | 14.5 | 28.6 | 41 | 26.2
72 h | 4.4 | 2.6 | 17.4 | 36 | 56 | –

Conditions | drug sensitivity score | relative viability EC50 [µM]
Caco-2 [14] | 4.6 | –
Calu-3 [11] | – | > 10
Calu-3 [15] | 0.5 | –
HepG2 [16] | 1 | –
U2OS [12] | – | > 10
U2OS [17] | 0 | –
Vero E6 [18] | 2.3 | –

CNC(=O)c1cc(Oc2ccc(NC(=O)Nc3cc(C(C)(C)C)nn3-c3ccc4ncccc4c3)c(F)c2)ccn1 [rebastinib]
Conditions | SARS-CoV-2 infection rate, [7] [%] | cell count, [1] [%] | cell viability, Caco-2 [2] [%] | cell viability, Calu-3 [3] [%] | cell viability, HepG2 [4] [%] | cell viability, U2OS [5] [%] | cell viability, Vero E6 [6] [%] | morphology score, [9]
1 nM | – | – | 98.4 | 100 | 104 | 97.9 | 98.2 | –
10 nM | – | – | 89.9 | 97.5 | 102 | 96.4 | 96.8 | –
0.1 µM | 97 | 104 | – | – | – | – | – | 0.31
100 nM | – | – | 95.4 | 105 | 108 | 97 | 102 | –
0.3 µM | 92 | 103 | – | – | – | – | – | 0.24
1 µM | 92 | 102 | – | – | – | – | – | 0.22
1000 nM | – | – | 114 | 90.8 | 28.6 | 108 | 112 | –
3 µM | 95 | 96 | – | – | – | – | – | 0.12
10000 nM | – | – | 30 | 42.6 | 6.1 | 9.6 | 9.9 | –

drug-induced phospholipidosis [%], A549-ACE2 [8]
Conditions | 0.3 µM | 0.833333 µM | 3.33333 µM | 6.66667 µM | 10 µM
24 h | -0.9 | -2.36 | -1.54 | -1.91 | -2.66
48 h | -0.69 | -2.5 | -1.43 | -0.4 | 0.77
72 h | 0.586 | -3.51 | -2.2 | 1.53 | 5.87

Conditions | drug sensitivity score | relative viability EC50 [µM]
Caco-2 [10] | – | 3.94
Caco-2 [14] | 3.1 | –
Calu-3 [11] | – | 1.94
Calu-3 [15] | 4.6 | –
HepG2 [16] | 13.3 | –
HepG2 [20] | – | 0.638
U2OS [12] | – | 3.62
U2OS [17] | 4.4 | –
Vero E6 [13] | – | 3.74
Vero E6 [18] | 4.3 | –
